From PubChem BioAssay (NCI) come the findings set out here.

The structures appear in SMILES notation.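 Each compound was tested at five concentrations against cells in 96-well plates for 48 hours. GI50 = concentration required for 50% inhibition of growth. TGI is the concentration that stops growth completely.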

Test systems include SNB-19 CNS; MDA-MB-231 breast; K-562 leukemia; OVCAR-4 ovarian; SF-268 CNS; ACHN renal; CCRF-CEM leukemia; SR leukemia.
Common to all, as to assay: inhibition of tumour cell growth, NCI panel, 48 h

As for `COc1cc2c3c(n(C)c(=O)c2cc1OC)-c1ccc(C#N)cc1C3=O`, the GI50 with SNB-19 CNS, with MDA-MB-231 breast, with K-562 leukemia, in the test on OVCAR-4 ovarian, with SF-268 CNS and with ACHN renal was more than 100 µM throughout. Further, in the test on CCRF-CEM leukemia, the GI50 is more than 100 µM. Also, the TGI in the test with SNB-19 CNS, in the test with MDA-MB-231 breast, in the test with K-562 leukemia, in the test on OVCAR-4 ovarian, in the test on SF-268 CNS and with ACHN renal was more than 100 µM each time. In the test with CCRF-CEM leukemia, the TGI was more than 100 µM.
In the case of `CN(C)C(=S)SCC(=O)Nc1ccccc1`, the TGI in the test on MDA-MB-231 breast, in the test on K-562 leukemia, in the test with SR leukemia, in the test with OVCAR-4 ovarian, with SF-268 CNS and in the test with ACHN renal was more than 100 µM throughout. Further, the TGI in the test on CCRF-CEM leukemia is more than 100 µM.
On to `Cc1ccc(S(=O)(=O)NC(CN)C(=O)O)cc1` (stereo not drawn), for which the TGI in the test with SNB-19 CNS, in the test with MDA-MB-231 breast, in the test on OVCAR-4 ovarian, in the test on SF-268 CNS and in the test on ACHN renal was more than 100 µM throughout.
On to `CCN1CCN(C(=O)[C@]23CCC(C)(C)C[C@@H]2C2=CC[C@@H]4[C@@]5(C)C/C(=C/c6ccncc6)C(=O)C(C)(C)[C@@H]5CC[C@@]4(C)[C@]2(C)CC3)CC1`, for which the GI50 in the test with SNB-19 CNS is 1.48 µM; in the test with MDA-MB-231 breast, 1.63 µM; in the test on K-562 leukemia, 1.6 µM; with OVCAR-4 ovarian it was 1.54 µM; in the test with ACHN renal it was 1.6 µM; in the test on CCRF-CEM leukemia, 1.7 µM. The TGI in the test with SNB-19 CNS is 2.86 µM; with MDA-MB-231 breast, 3.16 µM; in the test with K-562 leukemia, more than 100 µM; with OVCAR-4 ovarian it was 3.2 µM; with ACHN renal, 2.95 µM; with CCRF-CEM leukemia it was 5.32 µM.
With `c1ccc2c3c([nH]c2c1)C(c1ccc(C2NCCc4c2[nH]c2ccccc42)cc1)NCC3` (stereo not drawn), the GI50 in the test with SNB-19 CNS is 1.73 µM; in the test on MDA-MB-231 breast, 0.296 µM; in the test on K-562 leukemia, 0.244 µM; in the test with OVCAR-4 ovarian, 1.14 µM; with SF-268 CNS it was 1.12 µM; with ACHN renal, 0.713 µM. In the test on CCRF-CEM leukemia, the GI50 is 0.452 µM. Besides, the TGI in the test on SNB-19 CNS is 3.54 µM; in the test on MDA-MB-231 breast, 0.936 µM; in the test with K-562 leukemia, 0.488 µM; with OVCAR-4 ovarian, 2.53 µM; in the test with SF-268 CNS it was 2.57 µM; in the test with ACHN renal it was 2 µM. The same molecule registered a TGI in the test with CCRF-CEM leukemia of 2.03 µM.
As for `CN(CCCNC(=O)CCOCCOCCOCCNC(=O)Cc1ccc2ccc3cccc4ccc1c2c34)CCCNc1cc(-c2ccc3ccccc3c2)nc2ccccc12`, the GI50 was 0.51 µM in the test with SNB-19 CNS; 0.546 µM in the test on MDA-MB-231 breast; 0.0668 µM in the test on K-562 leukemia; 0.538 µM in the test on OVCAR-4 ovarian; 0.54 µM in the test on SF-268 CNS; 0.823 µM with ACHN renal. Further, the TGI in the test on SNB-19 CNS is 0.991 µM; in the test on MDA-MB-231 breast it was 1.06 µM; with K-562 leukemia it was 0.146 µM; with OVCAR-4 ovarian, 1.18 µM; in the test on SF-268 CNS it was 1.14 µM; in the test with ACHN renal it was 2.2 µM.
Turning to `COc1cc2nc3cc([N+](=O)[O-])ccc3c(NCCNCC(C)(C)O)c2cc1OC`, the GI50 in the test with SNB-19 CNS is 0.472 µM; in the test on MDA-MB-231 breast it was 0.451 µM; in the test on SR leukemia, 0.238 µM; with OVCAR-4 ovarian, 0.672 µM; with SF-268 CNS it was 0.491 µM; with ACHN renal, 0.657 µM. Moreover, the GI50 with CCRF-CEM leukemia was 0.573 µM. For the same molecule, the TGI was 2.83 µM in the test with SNB-19 CNS; 2.41 µM with MDA-MB-231 breast; 3.04 µM in the test on SR leukemia; 2.99 µM in the test on OVCAR-4 ovarian; 2.54 µM with SF-268 CNS; 4.19 µM in the test with ACHN renal. In the test on CCRF-CEM leukemia, this molecule had a TGI of 5.13 µM.
Take `c1cc2c(cn1)Nc1ccncc1S2`: the GI50 was 39 µM in the test with SNB-19 CNS; 98.9 µM in the test on MDA-MB-231 breast; 55.4 µM with K-562 leukemia; more than 100 µM with OVCAR-4 ovarian; 30.5 µM in the test on SF-268 CNS; 26.8 µM with ACHN renal. The GI50 in the test on CCRF-CEM leukemia is 37.3 µM. For the same molecule, the TGI with SNB-19 CNS, in the test on MDA-MB-231 breast, with K-562 leukemia, with OVCAR-4 ovarian, in the test on SF-268 CNS and in the test on ACHN renal was more than 100 µM in each case. Further, in the test on CCRF-CEM leukemia, the TGI is more than 100 µM.
For the molecule `O=S(=O)(c1cnccc1N1CCN(CCO)CC1)N1CCCC1`, the TGI in the test on SNB-19 CNS, in the test on MDA-MB-231 breast, in the test on K-562 leukemia, in the test on SR leukemia, in the test with OVCAR-4 ovarian and in the test on SF-268 CNS was more than 100 µM in each case. In the test on ACHN renal, this molecule showed a TGI of more than 100 µM.
Turning to `O=C1Cc2cc(C(=O)NC3C[C@H]4CC[C@@H](C3)N4S(=O)(=O)CC3CCN(CCCC(F)(F)F)CC3)c(Cl)cc2N1` (stereo partly drawn), the GI50 is more than 100 µM in the test on SNB-19 CNS; more than 100 µM in the test on MDA-MB-231 breast; 26.5 µM in the test with SR leukemia; more than 100 µM in the test on OVCAR-4 ovarian; more than 100 µM in the test on SF-268 CNS; more than 100 µM in the test with ACHN renal. In addition, the GI50 with CCRF-CEM leukemia is more than 100 µM. In addition, the TGI in the test with SNB-19 CNS, with MDA-MB-231 breast, in the test on SR leukemia, in the test on OVCAR-4 ovarian, in the test with SF-268 CNS and in the test on ACHN renal was more than 100 µM throughout. Besides, in the test with CCRF-CEM leukemia, the TGI was more than 100 µM.
With `CN1c2ccccc2N(C(=O)c2ccccc2)C(CC(=O)O)c2cccn21` (stereo not drawn), the TGI in the test on SNB-19 CNS, with K-562 leukemia, in the test on OVCAR-4 ovarian, in the test on SF-268 CNS, in the test on ACHN renal and in the test with CCRF-CEM leukemia was more than 100 µM in each case.
As to `CC(=O)c1c(C)[nH]c(-c2nc3ccc(N4CCN(C)CC4)cc3[nH]2)c1-c1ccccc1`, the GI50 in the test with SNB-19 CNS is 3.03 µM; in the test on MDA-MB-231 breast, 0.728 µM; with K-562 leukemia, 0.779 µM; with OVCAR-4 ovarian it was 2.55 µM; with SF-268 CNS it was 5.24 µM; in the test with ACHN renal it was 0.876 µM. The GI50 in the test with CCRF-CEM leukemia was 4.69 µM. Also, the TGI in the test on SNB-19 CNS is more than 100 µM; in the test with MDA-MB-231 breast, 22.8 µM; with K-562 leukemia it was more than 100 µM; in the test on OVCAR-4 ovarian, 43.2 µM; in the test on SF-268 CNS, 39.6 µM; in the test with ACHN renal it was 12.3 µM. For the same molecule, the TGI in the test on CCRF-CEM leukemia is more than 100 µM.
